Measured values reported in article PMC5603512, “Discovery, Semisynthesis, Antiparasitic and Cytotoxic Evaluation of 14-Membered Resorcylic Acid Lactones and Their Derivatives” (Scientific Reports, 2017).
Read-outs that look alike come from different tables or passages of the source.

Assays:
[1] = Cytotoxicity MTT assay, K562; settings: human
Description: (§1) All of the compounds were also evaluated for their cytotoxic properties against six human cancer cell lines (lung carcinoma epithelian (A549), colon carcinoma (HCT-116), pancreatic carcinoma (BXPC-3), breast cancer (MCF-7), cervical epithelium (HeLa), and erythroleukemic (K562)) and a human umbilical vein endothelial cell (HUVEC) line (Table 2).
(§2) The cytotoxicity against HCT-116, BXPC-3, HeLa, MCF-7, A-549, and HUVEC cell lines was evaluated using the SRB method. The cytotoxicity against K562 and Vero cell lines was evaluated using the MTT method. Adriamycin was used as a positive control. All cells were cultivated in T-75 flasks containing 10% Fetal Bovine Serum (FBS), Dulbeco’s Modified Eagle Medium (DMEM) with 2 mM L-glutamine, and 1% penicillin-streptomycin at 37 °C in a humidified atmosphere with 5% CO2. For SRB assay, cells in their log phase of growth were seeded into 96 well micro plates (4 × 10^4 cells per well) and followed by treating with test samples at 10 μM or DMSO. After incubation at 37 °C for 72 h, the cells were fixed with the cold 20% (w/v) TCA for 2 h and stained with Sulforhodamine B (SRB) dye for 0.5 h. The protein-bound dye is dissolved in Tris base solution for OD determination at 540 nm on an ELISA Plate Reader. For MTT assay, cells (5 × 10^3 cells per well) were plated in 96 well micro plates. After cell attachment overnight, new medium containing test compounds or DMSO was added. The plate was incubated for 48 h at 37 °C and incubated with 3-(4,5-dimethylthiazol-2-yl)-2,5-diphenyltetrazolium bromide (MTT) for additional 2–4 hours. The assay plate was then read at 490 nm on an ELISA Plate Reader. The data were obtained from experiments carried out in triplicate.

[2] = Cytotoxicity SRB assay, A-549; settings: human
Description: as §1, §2

[3] = Cytotoxicity SRB assay, BXPC-3; settings: human
Description: as §1, §2

[4] = Cytotoxicity SRB assay, HCT-116; settings: human
Description: as §1, §2

[5] = Cytotoxicity SRB assay, HeLa; settings: human
Description: as §1, §2

[6] = Cytotoxicity SRB assay, MCF-7; settings: human
Description: as §1, §2

[7] = tested on: Leishmania donovani; assay: Antileishmanial assay (PicoGreen); type: cell-based
Description: The anti-leishmania activity was evaluated following the protocol described by Calderon et al.[39], using the fluorescent DNA intercalator PicoGreen (Invitrogen, USA). The species responsible for visceral leishmaniasis, L. donovani, was used for the assays.

[8] = tested on: Trypanosoma cruzi; assay: Antitrypanosomal assay (beta-galactosidase reporter, intracellular amastigotes in Vero cells); type: cell-based; settings: for IC50: Trypanosoma cruzi; as to Trypanosoma cruzi IC50: key: I: Inactive
Description: Briefly, the expression of the reporter gene for beta-galactosidase (β-Gal) in the Tulahuen clone C4 of T. cruzi is assessed by colorimetry at 570 nm, which correlates with the parasite growth. Assays were performed on the intracellular amastigote form of the parasite infecting African green monkey kidney (Vero) cells, incubated for 120 h at 37 °C with 5% CO2.

[9] = tested on: Plasmodium falciparum; assay: Antiplasmodial assay (PicoGreen growth inhibition in infected human erythrocytes); type: cell-based
Description: Activity against the causative agent of malaria was performed by culturing human erythrocytes and infecting them with P. falciparum, as described by Trager and Jensen[36]. Briefly, the W2 (Chloroquine resistant) and 3D7 (Chloroquine sensitive) strains of P. falciparum were cultured in RPMI 1640 medium (Sigma-Aldrich, USA) supplemented with 10% human serum (from O+ blood) at a hematocrit of 2% erythrocytes (O+) at 37 °C in a gas mixture of 5% CO2, 5% O2, and 90% N2. Parasites were synchronized by a temperature cycling technique as described by Almanza et al.[37]

[10] = Toxicity against Vero cells (MTT); type: cell-based, African green monkey; settings: African green monkey, MTT, 48 h
Description: It should be emphasized that toxicity is a major concern of drug discovery and development. The above active compounds were evaluated for in vitro toxicity against a mammalian kidney cell line (Vero). The selectivity index (SI) was used as the evaluation parameter of drug potential of the test samples by comparing the toxicity on the Vero cell line (CC50) and the selective inhibitory effect on P. falciparum, L. donovani or T. cruzi (IC50) calculated here as CC50/IC50.
Adriamycin was used as a positive control.

[11] = Cytotoxicity SRB assay, HUVEC; settings: human
Description: as §1, §2

[12] = BXPC-3 pancreatic carcinoma cells
[13] = in vitro, read-out: Leishmania donovani IC50
[14] = Tulahuen clone C4, intracellular amastigotes in Vero cells, 120 h
[15] = Erythrocyte, in vitro, W2 and 3D7 strains cultured, strain of the values not stated, read-out: Plasmodium falciparum IC50
[16] = Vero cells (mammalian kidney cell line)
[17] = read-out: Leishmania donovani IC50
[18] = 3D7, Erythrocyte, read-out: Plasmodium falciparum IC50

Row | SMILES | IC50 at 48 h ([1]; K562 erythroleukemic cells) | IC50 at 72 h ([2]; A-549 lung carcinoma cells) | IC50 at 72 h [3, 12] | IC50 at 72 h ([4]; HCT-116 colon carcinoma cells) | IC50 at 72 h ([5]; HeLa cervical epithelium cells) | IC50 at 72 h ([6]; MCF-7 breast cancer cells) | IC50 [7, 13] | Trypanosoma cruzi IC50 [8, 14] | IC50 [9, 15] | IC50 [7, 17] | IC50 at 48 h [1] | IC50 at 72 h [2] | IC50 [9, 18] | IC50 at 72 h [3] | IC50 at 72 h [4] | IC50 at 72 h [5] | IC50 at 72 h [6] | also measured
1 | COc1cccc2c1C(=O)c1c(O)c3c(c(O)c1C2=O)C[C@@](O)(C(=O)CO)C[C@@H]3O[C@H]1C[C@H](N)[C@H](O)[C@H](C)O1 [Adriamycin, reference compound] | 0.25 µM | 0.16 µM | 0.033 µM | 0.21 µM | 0.6 µM | 0.86 µM | – | – | – | – | – | – | – | – | – | – | – | –
2 | C[C@@H]1[C@H](O)[C@@H](C)/C=C/C=C/C=C/C=C/C=C/C=C/C=C/[C@H](O[C@@H]2O[C@H](C)[C@@H](O)[C@H](N)[C@@H]2O)C[C@@H]2O[C@](O)(C[C@@H](O)C[C@@H](O)[C@H](O)CC[C@@H](O)C[C@@H](O)CC(=O)O[C@H]1C)C[C@H](O)[C@H]2C(=O)O [Amphotericin B, reference compound] | – | – | – | – | – | – | – | – | – | – | – | – | – | – | – | – | – | IC50 ([7]; positive control, sentence ends with ref 40, read-out: IC50 of positive control, antileishmanial assay): 0.0763 µM
3 | COc1cc(O)c2c(c1)/C=C/C[C@H](O)[C@@H]1OC(C)(C)O[C@H]1/C=C/C[C@H](C)OC2=O [Compound 1, cochliomycin A] | > 10 µM | > 10 µM | > 10 µM | > 10 µM | > 10 µM | > 10 µM | > 15.7 µM | I | 30.7 µM | – | – | – | – | – | – | – | – | CC50 at 48 h [10, 16]: 96 µM
4 | COc1cc(O)c2c(c1Cl)/C=C/C[C@H](O)[C@H](O)[C@@H](O)CCC[C@H](C)OC2=O [Compound 2, cochliomycin C] | – | – | – | – | – | – | – | I | – | > 15.7 µM | > 10 µM | > 10 µM | > 30.7 µM | > 10 µM | > 10 µM | > 10 µM | > 10 µM | –
5 | COc1cc(O)c2c(c1)/C=C/C[C@H](O)[C@@H](O)C(=O)/C=C/C[C@H](C)OC2=O [Compound 4] | > 10 µM | > 10 µM | > 10 µM | > 10 µM | > 10 µM | > 10 µM | 15.2 µM | I | > 30.7 µM | – | – | – | – | – | – | – | – | –
6 | COc1cc(O)c2c(c1)/C=C/C[C@@H](O)[C@@H](O)C(=O)/C=C/C[C@H](C)OC2=O [Compound 5] | > 10 µM | > 10 µM | > 10 µM | > 10 µM | > 10 µM | > 10 µM | > 15.7 µM | I | > 30.7 µM | – | – | – | – | – | – | – | – | –
7 | COc1cc(O)c2c(c1)/C=C/C[C@H](O)[C@H](O)[C@@H](O)/C=C/C[C@H](C)OC2=O [Compound 8, zeaenol] | – | – | – | – | – | – | – | I | – | > 15.7 µM | > 10 µM | > 10 µM | > 30.7 µM | > 10 µM | > 10 µM | > 10 µM | > 10 µM | IC50 at 72 h [11]: > 10 µM; CC50 at 48 h [10]: 227 µM
8 | COc1cc(O)c2c(c1)/C=C/C[C@H](O)[C@H](O)C(=O)CCC[C@H](C)OC2=O [Compound 9] | – | – | – | – | – | – | – | I | – | > 15.7 µM | > 10 µM | > 10 µM | > 30.7 µM | > 10 µM | > 10 µM | > 10 µM | > 10 µM | CC50 at 48 h [10]: 131 µM
9 | COc1cc(O)c2c(c1)/C=C/C[C@H](O)[C@H](O)[C@@H](O)CCC[C@H](C)OC2=O [Compound 10] | – | – | – | – | – | – | – | I | – | > 15.7 µM | > 10 µM | > 10 µM | > 30.7 µM | > 10 µM | > 10 µM | > 10 µM | > 10 µM | CC50 at 48 h [10]: 274 µM
10 | CCC(=O)Oc1cc(OC)cc2c1C(=O)O[C@@H](C)C/C=C/[C@H](OC(=O)CC)[C@@H](OC(=O)CC)[C@@H](OC(=O)CC)C/C=C/2 [Compound 14] | > 10 µM | > 10 µM | > 10 µM | > 10 µM | > 10 µM | > 10 µM | > 15.7 µM | I | > 30.7 µM | – | – | – | – | – | – | – | – | –
11 | COc1cc(O)c2c(c1Cl)/C=C/C[C@H](O)[C@H](O)[C@@H](O)/C=C/C[C@H](C)OC2=O [Compound 16] | > 10 µM | > 10 µM | > 10 µM | > 10 µM | > 10 µM | > 10 µM | > 15.7 µM | I | > 30.7 µM | – | – | – | – | – | – | – | – | CC50 at 48 h [10, 16]: 260 µM
12 | COc1cc(O)c2c(c1Cl)/C=C/C[C@H](O)[C@@H]1OC(C)(C)O[C@H]1/C=C/C[C@H](C)OC2=O [Compound 17] | > 10 µM | > 10 µM | > 10 µM | > 10 µM | > 10 µM | > 10 µM | > 15.7 µM | I | > 30.7 µM | – | – | – | – | – | – | – | – | CC50 at 48 h [10, 16]: 143 µM
13 | COc1cc(O)c2c(c1Cl)/C=C/C[C@H](O)[C@@H]1OC(C)(C)O[C@H]1CCC[C@H](C)OC2=O [Compound 18] | – | – | – | – | – | – | – | I | – | > 15.7 µM | > 10 µM | > 10 µM | > 30.7 µM | > 10 µM | > 10 µM | > 10 µM | > 10 µM | CC50 at 48 h [10]: 102 µM
14 | COc1cc(OC(C)=O)c2c(c1Cl)/C=C/C[C@H](OC(C)=O)[C@H](OC(C)=O)[C@@H](OC(C)=O)CCC[C@H](C)OC2=O [Compound 19] | – | – | – | – | – | – | – | I | – | > 15.7 µM | > 10 µM | > 10 µM | > 30.7 µM | > 10 µM | > 10 µM | > 10 µM | > 10 µM | –
15 | COc1cc2c(c(OC(=O)c3cccs3)c1)C(=O)O[C@@H](C)C/C=C/C(=O)[C@@H](OC(=O)c1cccs1)[C@@H](OC(=O)c1cccs1)C/C=C/2 [Compound 22] | – | – | – | – | – | – | 3.03 µM | – | 20.1 µM | – | – | – | – | – | – | – | – | IC50 ([8]; Tulahuen clone C4, intracellular amastigotes in Vero cells, 120 h, read-out: Trypanosoma cruzi IC50): 6.31 µM; CC50 at 48 h [10, 16]: 11.5 µM
16 | COc1cc2c(c(OC(C)=O)c1)C(=O)O[C@@H](C)C/C=C/C(=O)[C@@H](OC(C)=O)[C@H](OC(C)=O)C/C=C/2 [Compound 24] | – | > 10 µM | – | > 10 µM | > 10 µM | – | 12.1 µM | – | > 30.7 µM | – | – | – | – | – | – | – | – | IC50 at 72 h ([11]; HUVEC (umbilical vein endothelial cells)): > 10 µM; CC50 at 48 h [10, 16]: 3.2 µM
17 | COc1cc(O)c2c(c1)/C=C/C[C@H]1OC(C)(C)O[C@H]1C(=O)/C=C/C[C@H](C)OC2=O [Compound 25] | – | – | – | – | – | – | > 15.7 µM | I | > 30.7 µM | – | > 10 µM | > 10 µM | – | > 10 µM | > 10 µM | > 10 µM | > 10 µM | IC50 at 72 h [11]: > 10 µM
18 | O=C(Cn1ccnc1[N+](=O)[O-])NCc1ccccc1 [benznidazole, reference compound] | – | – | – | – | – | – | – | – | – | – | – | – | – | – | – | – | – | IC50 ([8]; Vero, control drug, sentence ends with ref 41, read-out: IC50 of control drug, antitrypanosomal assay): 3.85 µM
19 | CCN(CC)CCCC(C)Nc1ccnc2cc(Cl)ccc12 (centres unmarked) [chloroquine, reference compound] | – | – | – | – | – | – | – | – | – | – | – | – | – | – | – | – | – | IC50 ([9]; Erythrocyte, read-out: IC50 of positive control, antiplasmodial assay): 0.0329 µM
